We go through nine molecules from US8486931B2, “Substituted oxindole compounds” (Abbott GmbH & Co. KG, priority 2007, dated 2013).

Each structure is given as a SMILES string. pKi: −log10 of the molar value.

In the assay the target is T1, human vasopressin V1b receptor (Homo sapiens, UniProt P47901).
T1 construct: expressed in transfected cells; host or cells: CHO-K1 (cell line hV1b-3H2_CHO), membrane preparation
T1 sequence (P47901 1-424): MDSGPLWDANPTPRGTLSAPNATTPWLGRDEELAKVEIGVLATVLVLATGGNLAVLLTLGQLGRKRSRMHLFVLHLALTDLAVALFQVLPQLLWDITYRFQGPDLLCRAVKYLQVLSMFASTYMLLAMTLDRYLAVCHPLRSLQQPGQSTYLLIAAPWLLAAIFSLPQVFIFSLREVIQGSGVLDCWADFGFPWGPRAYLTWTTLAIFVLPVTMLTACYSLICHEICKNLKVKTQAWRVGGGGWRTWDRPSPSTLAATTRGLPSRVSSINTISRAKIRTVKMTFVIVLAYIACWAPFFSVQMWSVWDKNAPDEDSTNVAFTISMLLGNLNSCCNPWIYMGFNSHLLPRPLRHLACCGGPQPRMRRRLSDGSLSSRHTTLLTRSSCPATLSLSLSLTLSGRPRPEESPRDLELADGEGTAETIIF
Description: Vasopressin V1b receptor binding assay. The settings on record: membranes from CHO-K1 cells with stably expressed human V1b receptors, 1.5 nM 3H-AVP displacement; with more than one stereogenic center: the diastereomer with stronger affinity. Put shortly: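 Membranes bearing human V1b receptor incubated 60 min at room temperature in 50 mM Tris, 10 mM MgCl2, 0.1% BSA, pH 7.4, 2% DMSO, triplicate.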
`CCOc1ccc(OC)cc1C1(N2CCC(N3CCN(CC)CC3)CC2)C(=O)N(S(=O)(=O)c2ccc(OC)cn2)c2ccc(C#N)cc21` (racemic) [Example 145, (±)-5-Cyano-3-(2-ethoxy-5-methoxy-phenyl)-3-[4-(4-ethyl-piperazin-1-yl)-piperidin-1-yl]-1-(5-methoxy-pyridine-2-sulfonyl)-2,3-dihydro-1H-indol-2-one]: the pKi – broadly, the negative decadic logarithm of the Ki, by convention in mol/L – is 7.30 to 8.00.
Regarding `CCOc1ccc(OC)cc1C1(N2CCN(c3ccnc(CC)c3)CC2)C(=O)N(S(=O)(=O)c2ccc(OC)cn2)c2ccc(C#N)cc21` (racemic) [Example 146, (±)-5-Cyano-3-(2-ethoxy-5-methoxy-phenyl)-3-[4-(2-ethyl-pyridin-4-yl)-piperazin-1-yl]-1-(5-methoxy-pyridine-2-sulfonyl)-2,3-dihydro-1H-indol-2-one], the pKi was over 8.00.
The result for `CCOc1cc(F)ccc1C1(N2CCCN(c3ccncc3)CC2)C(=O)N(S(=O)(=O)c2ccc(OC)cn2)c2ccc(C#N)cc21` (racemic) [Example 147, (±)-5-Cyano-3-(2-ethoxy-4-fluoro-phenyl)-1-(5-methoxy-pyridine-2-sulfonyl)-3-(4-pyridin-4-yl-[1,4]diazepan-1-yl)-2,3-dihydro-1H-indol-2-one] reads 7.30 to 8.00; that for `CCOc1nc(Cl)ccc1C1(N2CC3CN(c4ccncc4)CC3C2)C(=O)N(S(=O)(=O)c2ccc(OC)cn2)c2ccc(C#N)cc21` (racemic) [Example 148, (±)-5-Cyano-3-(6-chloro-2-ethoxy-pyridin-3-yl)-1-(5-methoxy-pyridine-2-sulfonyl)-3-(5-pyridin-4-yl-hexahydro-pyrrolo[3,4-c]pyrrol-2-yl)-2,3-dihydro-1H-indol-2-one], 7.30 to 8.00.
The result for `CCOc1nc(Cl)ccc1C1(N2CC3CN(c4ccnc(C)c4)CC3C2)C(=O)N(S(=O)(=O)c2ccc(OC)cn2)c2ccc(C#N)cc21` (racemic) [Example 149, (±)-5-Cyano-3-(6-chloro-2-ethoxy-pyridin-3-yl)-1-(5-methoxy-pyridine-2-sulfonyl)-3-[5-(2-methyl-pyridin-4-yl)-hexahydro-pyrrolo[3,4-c]pyrrol-2-yl]-2,3-dihydro-1H-indol-2-one] reads over 8.00.
The same measure for `CCOc1ccccc1C1(N2CCN(c3ccnc(C(C)C)c3)CC2)C(=O)N(S(=O)(=O)c2ccc(OC)cn2)c2ccc(C#N)cc21` (racemic) [Example 150, (±)-5-Cyano-3-(2-ethoxy-phenyl)-3-[4-(2-isopropyl-pyridin-4-yl)-piperazin-1-yl]-1-(5-methoxy-pyridine-2-sulfonyl)-2,3-dihydro-1H-indol-2-one]: 7.30 to 8.00.
Consider `CCOc1cc(F)ccc1C1(N2CCN(c3ccnc(C(C)C)c3)CC2)C(=O)N(S(=O)(=O)c2ccc(OC)cn2)c2ccc(C#N)cc21` (racemic) [Example 153, (±)-5-Cyano-3-(2-ethoxy-4-fluoro-phenyl)-3-[4-(2-isopropyl-pyridin-4-yl)-piperazin-1-yl]-1-(5-methoxy-pyridine-2-sulfonyl)-2,3-dihydro-1H-indol-2-one], for which the pKi is over 8.00.
The result for `CCOc1ccc(OC)cc1C1(N2CCCN(c3ccnc(C(C)C)c3)CC2)C(=O)N(S(=O)(=O)c2ccc(OC)cn2)c2ccc(C#N)cc21` (racemic) [Example 154, (±)-5-Cyano-3-(2-ethoxy-5-methoxy-phenyl)-3-[4-(2-isopropyl-pyridin-4-yl)-[1,4]diazepan-1-yl]-1-(5-methoxy-pyridine-2-sulfonyl)-2,3-dihydro-1H-indol-2-one] reads over 8.00; that for `CCOc1nc(Cl)ccc1C1(N2CC3CC2CN3c2ccncc2)C(=O)N(S(=O)(=O)c2ccc(OC)cn2)c2ccc(C#N)cc21` (racemic) [Example 155, (±)-5-Cyano-3-(6-chloro-2-ethoxy-pyridin-3-yl)-1-(5-methoxy-pyridine-2-sulfonyl)-3-((1S,4S)-5-pyridin-4-yl-2,5-diaza-bicyclo[2.2.1]hept-2-yl)-2,3-dihydro-1-2-one], 7.30 to 8.00.
